Earlier results, collected in patent US10561704B2, “Compositions and methods for treating neuropsychiatric disorders using an endothelin-B receptor agonist” (MIDWESTERN UNIVERSITY, priority 2013, dated 2020).
Where a SMILES comes first, the peptide text is derived from it.

Test system: Aβ treated rats
Conditions: Briyal et al., 2011; cited from earlier work

## CC(C)C[C@@H]1NC(=O)[C@@H](C(C)C)NC(=O)[C@@H]2CCCN2C(=O)[C@@H](CC(=O)O)NC(=O)[C@@H](Cc2c[nH]c3ccccc23)NC1=O [BQ123] (HELM PEPTIDE1{L.[dW].[dD].P.[dV]}$PEPTIDE1,PEPTIDE1,1:R1-5:R2$$$V2.0)
  Aβ induced oxidative stress and cognitive deficits: prevent

## Cc1noc(NS(=O)(=O)c2cccc3c(N(C)C)cccc23)c1C [BMS182874]
  Aβ induced oxidative stress and cognitive deficits: prevent
